Laboratory results reported in the NIST ThermoML archive (doi:10.1021/acs.jced.6b00388).
± gives the expanded uncertainty stated by the source.

Conditions: Liquid, Ebulliometric method (Recirculating still)

## CC=C(C)C#N [2-methyl-2-butenenitrile]
367.43 K
  vapor or sublimation pressure: 50 ± 1 kPa
392.75 K
  vapor or sublimation pressure: 100 ± 2 kPa

## CC=CCC#N [3-pentenenitrile]
393.48 K
  vapor or sublimation pressure: 50 ± 1 kPa
418.25 K
  vapor or sublimation pressure: 100 ± 2 kPa

## C=CC1CC=CCC1 (stereo unspecified) [4-ethenylcyclohexene]
377.75 K
  vapor or sublimation pressure: 50 ± 1 kPa
401.42 K
  vapor or sublimation pressure: 100 ± 2 kPa
